We go through 6 compounds from ChEMBL document CHEMBL1140885, “Novel naphthalimide-amino acid conjugates with flexible leucine moiety as side chain: design, synthesis and potential antitumor activity” (Bioorg Med Chem, 2009).

The subject of data set [1] is MCF7. The data set can be described thus: Cytotoxicity against human MCF7 cells after 48 hrs by MTT assay. It is filed as functional, cell-based. As to conditions: MCF7, 48 h; call rule not given here. Background: Tetrazolium dyes change colour on reduction, which living cells bring about.
Data set [2] relates to HL-60. In words: Cytotoxicity against human HL60 cells after 48 hrs by MTT assay. The data set is classed as functional, cell-based. As to conditions: HL-60, 48 h.
In data set [3] the test system is A-375. The data set can be described thus: Cytotoxicity against human A375 cells after 48 hrs by MTT assay. The data set is classed as functional, cell-based. As to conditions: A-375, 48 h.
The test system of data set [4] is P388. In words: Cytotoxicity against mouse P388 cells after 48 hrs by MTT assay. It is filed as functional, cell-based. As to conditions: P388, 48 h.
The test system of data set [5] is HeLa. In words: Cytotoxicity against human HeLa cells after 48 hrs by MTT assay. It is filed as functional, cell-based.
The test system of data set [6] is HCT-8. In words: Cytotoxicity against human HCT8 cells after 48 hrs by MTT assay. The conditions noted are these: HCT-8, 48 h. The data set is classed as functional, cell-based.
Data set [7] deals with A549. In words: Cytotoxicity against human A549 cells after 72 hrs by SRB assay. It is filed as functional, cell-based. As to conditions: A549, 72 h. A general note: In SRB staining, fixed cells bind dye roughly in proportion to their protein.
The target of data set [8] is Albumin (Bos taurus, UniProt P02769). In words: Binding affinity to bovine serum albumin at 10 uM after 15 mins by spectrophotometric titration. It is filed as ADME. The conditions noted are these: cattle, isolated protein, 0.25 h.
The subject of data set [9] is DNA. The data set can be described thus: Binding affinity to calf thymys DNA assessed as increase in viscosity. It is filed as nucleic-acid assay. As to conditions: Bos taurus.
In data set [10] the test system is DNA. In words: Binding affinity to calf thymus DNA by fluorescence titration. It is filed as nucleic-acid assay. As to conditions: Bos taurus.

Molecules are shown by their SMILES.

Chain of Albumin (P02769 whole entry): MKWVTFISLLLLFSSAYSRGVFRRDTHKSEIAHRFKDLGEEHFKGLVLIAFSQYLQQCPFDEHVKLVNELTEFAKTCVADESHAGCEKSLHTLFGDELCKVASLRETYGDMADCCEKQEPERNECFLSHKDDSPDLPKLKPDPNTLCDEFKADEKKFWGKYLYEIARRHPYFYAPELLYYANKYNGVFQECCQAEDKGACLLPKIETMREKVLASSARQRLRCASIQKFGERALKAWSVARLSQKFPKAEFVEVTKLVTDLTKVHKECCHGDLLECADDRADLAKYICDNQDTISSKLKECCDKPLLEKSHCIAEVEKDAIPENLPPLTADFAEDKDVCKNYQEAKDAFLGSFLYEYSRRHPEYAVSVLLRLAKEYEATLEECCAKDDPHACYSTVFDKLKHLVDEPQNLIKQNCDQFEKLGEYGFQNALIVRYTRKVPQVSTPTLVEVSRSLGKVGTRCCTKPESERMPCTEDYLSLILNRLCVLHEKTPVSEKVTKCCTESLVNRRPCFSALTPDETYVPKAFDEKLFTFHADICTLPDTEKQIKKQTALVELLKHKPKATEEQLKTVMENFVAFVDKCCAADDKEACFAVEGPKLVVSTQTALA

As to `CC(C)C[C@@H](C(=O)Nc1ccc(S(=O)(=O)c2ccc(N)cc2)cc1)N1C(=O)c2cccc3c(NCCSc4ccccc4)ccc(c23)C1=O`, the IC50 (in general, the midpoint of a concentration-inhibition curve) in [1] was 24.6 µM; in [2], greater than 50 µM; in data set [3], greater than 50 µM; in data set [4] it was greater than 50 µM; in data set [5], greater than 50 µM; in data set [6] it was greater than 50 µM. In data set [7], the 50% inhibitory concentration (IC50) is greater than 50 µM. For the same compound, the result in data set [8] was Active.

For `COc1cc(-c2ccc(NC(=O)[C@H](CC(C)C)N3C(=O)c4cccc5c(NCCN(C)C)ccc(c45)C3=O)c(OC)c2)ccc1N`, the IC50 in [1] was 15 µM; in data set [2] it was 22.8 µM; in data set [3] it was 6.51 µM; in data set [4] it was 7.67 µM; in [5], 6.74 µM; in data set [6], greater than 50 µM. In data set [7], it took 25.1 µM to reach half-maximal inhibition (IC50).

Take `CC(C)C[C@@H](C(=O)Nc1ccc(S(N)(=O)=O)cc1)N1C(=O)c2cccc3c(NCCN(C)C)ccc(c23)C1=O`: the IC50 in data set [1] was 8.65 µM; in data set [2], 17.8 µM; in data set [3], 6.6 µM; in [4] it was 7.23 µM; in data set [5], 8.09 µM; in [6], greater than 50 µM. For the same compound, the IC50 in data set [7] is greater than 50 µM. Also, the Activity result in [9] is “Dose-dependent effect”. The compound further came in with a Ka in data set [10] of 4.92 ×10⁴ /M.

With `CC(C)C[C@@H](C(=O)Nc1ccc(S(N)(=O)=O)cc1)N1C(=O)c2cccc3c(NCCSc4ccccc4)ccc(c23)C1=O`, the 50% inhibitory concentration (IC50) was 12.6 µM in [1]; greater than 50 µM in data set [2]; greater than 50 µM in data set [3]; greater than 50 µM in data set [4]; greater than 50 µM in [5]; greater than 50 µM in [6]. This compound also registered an IC50 in [7] greater than 50 µM. Besides, the outcome in data set [8] was Active.

For the compound `CC(C)C[C@@H](C(=O)Nc1ccc(S(=O)(=O)c2ccc(N)cc2)cc1)N1C(=O)c2cccc3c(NCCN(C)C)ccc(c23)C1=O`, the 50% inhibitory concentration (IC50) in data set [1] is 8.64 µM; in data set [2] it was greater than 50 µM; in [3], greater than 50 µM; in data set [4], greater than 50 µM; in [5], greater than 50 µM; in data set [6], greater than 50 µM. In addition, the IC50 in data set [7] stood at 17.2 µM.

For the compound `COc1cc(-c2ccc(NC(=O)[C@H](CC(C)C)N3C(=O)c4cccc5c(NCCSc6ccccc6)ccc(c45)C3=O)c(OC)c2)ccc1N`, the half-inhibitory concentration (IC50) is 9.45 µM in data set [1]; greater than 50 µM in data set [2]; greater than 50 µM in data set [3]; greater than 50 µM in data set [4]; greater than 50 µM in data set [5]; greater than 50 µM in [6]. Also, the IC50 in [7] was greater than 50 µM. Besides, the outcome in data set [8] was Active.
